The target of one test is T1, D816V Kit (Homo sapiens, UniProt P10721, D816V).
T1 construct: purchased Carna Bioscience 08-156
As to the kind of experiment: Kit D816V assay at Km (Caliper electrophoretic mobility shift). The following applies: 15 uM ATP, 25 C, 90 minutes. Format: biochemical. The method, then: In order to assess the activity of chemical compounds against the relevant kinase of interest, the Caliper LifeSciences electrophoretic mobility shift technology platform is used. Fluorescently labeled substrate peptide is incubated in the presence of kinase and ATP so that a […] proportion of the peptide is phosphorylated. At the end of the reaction, the mix of phosphorylated (product) and non-phosphorylated (substrate) peptides are passed through the microfluidic system of the Caliper EZ Reader 2, under an applied potential difference. The presence of the phosphate group on the product peptide provides a difference in mass and charge between those of the substrate peptide, resulting in a separation of the substrate and product pools in the sample. As the pools pass a LEDS within the instrument, these pools are detected and resolved as separate peaks. The ratio between these peaks therefore reflects the activity of the chemical matter at that concentration in that well, under those conditions.
The reaction was stopped by the addition of 70 ul of Stop buffer (100 mM HEPES pH 7.5, 0.015% Brij 35, 35 mM EDTA and 0.2% of Coating Reagent 3 (Caliper Lifesciences)). The plate was then read on a Caliper EZReader 2 (protocol settings: −1.9 psi, upstream voltage −700, downstream voltage −3000, post sample sip 35 s).

The target in test [1] is T2, Kit D816V (HMC1.2 cells, Kit V560G and D816V) (Homo sapiens, UniProt P10721, D816V/V560G).
T2 construct: endogenous in cells; host or cells: HMC1.2 cells
As to the kind of experiment: HMC1.2 autophosphorylation assay (AlphaLISA, phospho-Y719 c-Kit). Format: cell-based. The following applies: Kit autophosphorylation at tyrosine 719, 90 minutes, read-out: Cellular Activity. Here is the method:
HMC1.2 Autophosphorylation Assay:
10,000 HMC1.2 cells were incubated in 22 ul culture media (phenol-red free IMDM, no serum) in each well of a 384-well plate and serum starved overnight in a tissue culture incubator (5% CO2, 37° C.). A 10-point dose concentration series of compound (25 uM-95.4 pM) were then added to the cells in a volume of 3.1 ul to each well (0.25% DMSO final concentration). After 90 minutes, 6 ul of 5× AlphaLISA Lysis Buffer (Perkin Elmer) supplemented with a protease and phosphatase inhibitor cocktail (Cell Signaling Technologies) was added to each well and shaken at 450 rpm for 15 minutes at 4° C. 10 ul of phospho-Y719 c-Kit and total c-Kit antibodies (15 nM final concentration, Cell Signaling Technologies) and 50 ug/ml AlphaLISA rabbit acceptor beads (Perkin Elmer) were added to each well and shaken at 300 rpm at room temperature for 2 hours. 10 ul of 100 ug/ml streptavidin donor beads (Perkin Elmer) were added to each well, blocked from light with aluminum adhesive and shaken at 300 rpm at room temperature for 2 hours. Fluorescence signal was obtained on Envision (Perkin Elmer) by AlphaScreen 384 well HTS protocol.
This cell line contains Kit mutated at positions V560G and D816V resulting in constitutive activation of the kinase. The following compounds were tested in an assay to measure direct inhibition of Kit D816V kinase activity by assaying Kit autophosphorylation at tyrosine 719 on the Kit protein.

T2 sequence (P10721 26-976 V560G/D816V): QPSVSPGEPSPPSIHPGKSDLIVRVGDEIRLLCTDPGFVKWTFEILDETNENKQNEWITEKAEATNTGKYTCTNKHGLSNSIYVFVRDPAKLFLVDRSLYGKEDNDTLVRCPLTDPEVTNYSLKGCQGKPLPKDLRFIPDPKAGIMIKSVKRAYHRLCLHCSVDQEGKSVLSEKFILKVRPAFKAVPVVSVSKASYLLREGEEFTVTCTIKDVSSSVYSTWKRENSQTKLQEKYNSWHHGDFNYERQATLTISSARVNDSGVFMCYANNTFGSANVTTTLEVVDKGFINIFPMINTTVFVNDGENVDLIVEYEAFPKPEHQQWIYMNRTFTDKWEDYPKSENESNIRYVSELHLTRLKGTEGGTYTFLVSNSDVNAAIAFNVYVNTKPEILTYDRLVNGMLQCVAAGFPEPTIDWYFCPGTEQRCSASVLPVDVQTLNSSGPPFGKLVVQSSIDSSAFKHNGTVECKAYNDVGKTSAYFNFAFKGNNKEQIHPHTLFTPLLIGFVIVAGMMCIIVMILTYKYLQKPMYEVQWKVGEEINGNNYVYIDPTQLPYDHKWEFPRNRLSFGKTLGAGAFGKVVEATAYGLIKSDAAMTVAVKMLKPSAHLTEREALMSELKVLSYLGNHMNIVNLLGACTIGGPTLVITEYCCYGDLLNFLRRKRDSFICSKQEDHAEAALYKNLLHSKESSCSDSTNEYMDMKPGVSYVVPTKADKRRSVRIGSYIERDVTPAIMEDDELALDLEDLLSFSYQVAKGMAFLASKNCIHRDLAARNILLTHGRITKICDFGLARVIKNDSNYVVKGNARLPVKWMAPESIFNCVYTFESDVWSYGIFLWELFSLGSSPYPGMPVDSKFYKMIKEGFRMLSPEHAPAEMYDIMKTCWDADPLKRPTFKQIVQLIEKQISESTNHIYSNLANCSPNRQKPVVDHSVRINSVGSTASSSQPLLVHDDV
T1 sequence (P10721 26-976 D816V): as the sequence (P10721 26-976 V560G/D816V) above, with G535V counted along it

For the molecule `CC1(Cn2cc(Nc3ncnc(N4CCN(c5ncc(Cc6ccccc6)cn5)CC4)n3)cn2)COC1` [Compound 87], the values for the IC50 (at D816V Kit; in test [1]) were 1.01 to 10 nM and 10 to 100 nM, respectively.
The like results for `Brc1cnc(N2CCN(c3ncnc(Nc4cnn(C[C@@H]5CNCCO5)c4)n3)CC2)nc1` [Compound 91] were, in that order, 1.01 to 10 nM and 1000 to 10000 nM.
The matching figures for `OC[C@@H](O)c1ccc(Nc2ncnc(N3CCN(c4ncc(Cc5ccc(F)cc5)cn4)CC3)n2)cc1` [Compound 92]: less than 1 nM and 10 to 100 nM.
The matching figures for `OC[C@H](O)c1ccc(Nc2ncnc(N3CCN(c4ncc(Cc5ccc(F)cc5)cn4)CC3)n2)cc1` [Compound 93]: less than 1 nM and 10 to 100 nM.
As for `c1ccc(Cc2cnc(N3CCN(c4ncnc(Nc5ccc6c(c5)CNCC65CC5)n4)CC3)nc2)cc1` [Compound 97], the results for the IC50 (on D816V Kit; in test [1]) were less than 1 nM and 10 to 100 nM, respectively.
The matching figures for `CC1(C)CNCc2cc(Nc3ncnc(N4CCN(c5ncc(Cc6ccccc6)cn5)CC4)n3)ccc21` [Compound 99]: 1.01 to 10 nM and less than 10 nM.
The matching figures for `C[C@H](O)Cn1cc(Nc2ncnc(N3CCN(c4ncc(Sc5ccccc5F)cn4)CC3)n2)cn1` [Compound 100]: less than 1 nM and 10 to 100 nM.
The matching figures for `c1ccc(Cc2cnc(N3CCN(c4ncnc(Nc5ccc(O[C@@H]6CCNC6)cc5)n4)CC3)nc2)cc1` [Compound 107]: less than 1 nM and 10 to 100 nM.
With `c1ccc(Cc2cnc(N3CCN(c4ncnc(Nc5ccc(O[C@H]6CCNC6)cc5)n4)CC3)nc2)cc1` [Compound 108], the IC50 was less than 1 nM at D816V Kit and 10 to 100 nM in test [1].
The matching figures for `OCc1ccccc1Cc1cnc(N2CCN(c3ncnc(Nc4ccc5c(c4)CNCC5)n3)CC2)nc1` [Compound 109]: less than 1 nM and less than 10 nM.
The like results for `OCc1nc(N2CCN(c3ncnc(Nc4ccc5c(c4)CNCC5)n3)CC2)ncc1Cc1ccccc1` [Compound 110] were, in that order, less than 1 nM and 10 to 100 nM.
The matching figures for `O[C@@H]1CCN(c2ccc(Nc3ncnc(N4CCN(c5ncc(Cc6ccccc6)cn5)CC4)n3)cc2)C1` [Compound 111]: 1.01 to 10 nM and 10 to 100 nM.
On to `O[C@H]1CCN(c2ccc(Nc3ncnc(N4CCN(c5ncc(Cc6ccccc6)cn5)CC4)n3)cc2)C1` [Compound 112], for which the IC50 was 1.01 to 10 nM on D816V Kit and 100 to 1000 nM in test [1].
As to `COc1ccccc1Cc1cnc(N2CCN(c3ncnc(Nc4ccc5c(c4)CNCC5)n3)CC2)nc1` [Compound 113], the IC50 on D816V Kit fell in the range of 1.01 to 10 nM; in test [1], 100 to 1000 nM.
Turning to `CC(C)(c1ccccc1)c1cnc(N2CCN(c3ncnc(Nc4ccc([C@H](O)CO)cc4)n3)CC2)nc1` [Compound 119], the IC50 on D816V Kit was less than 1 nM; in test [1], less than 10 nM.
For `CC(C)(c1ccccc1)c1cnc(N2CCN(c3ncnc(Nc4ccc([C@@H](O)CO)cc4)n3)CC2)nc1` [Compound 120], the IC50 at D816V Kit was less than 1 nM; in test [1] it was 10 to 100 nM.
On to `CC(C)(O)[C@H](O)c1ccc(Nc2ncnc(N3CCN(c4ncc(Cc5ccccc5)cn4)CC3)n2)cc1` [Compound 121], for which the IC50 at D816V Kit is less than 1 nM; in test [1] it was 10 to 100 nM.
The like results for `CC(C)(O)[C@@H](O)c1ccc(Nc2ncnc(N3CCN(c4ncc(Cc5ccccc5)cn4)CC3)n2)cc1` [Compound 122] were, in that order, less than 1 nM and 10 to 100 nM.
The matching figures for `c1ccc(Cc2cnc(N3CCN(c4ncnc(Nc5cnn(C[C@H]6COCCN6)c5)n4)CC3)nc2)cc1` [Compound 125]: less than 1 nM and 10 to 100 nM.
The matching figures for `c1ccc(Cc2cnc(N3CCN(c4ncnc(Nc5cnn(C[C@@H]6COCCN6)c5)n4)CC3)nc2)cc1` [Compound 126]: 1.01 to 10 nM and 100 to 1000 nM.
Turning to `OC[C@@H](O)COc1ccc(Nc2ncnc(N3CCN(c4ncc(Cc5ccccc5)cn4)CC3)n2)cc1` [Compound 129], the IC50 was 1.01 to 10 nM on D816V Kit and 10 to 100 nM in test [1].
Take `OC[C@@H](O)COc1cccc(Nc2ncnc(N3CCN(c4ncc(Cc5ccccc5)cn4)CC3)n2)c1` [Compound 130]: the IC50 lay in the range of 1.01 to 10 nM at D816V Kit and 10 to 100 nM in test [1].
The like results for `OC[C@H](O)COc1ccc(Nc2ncnc(N3CCN(c4ncc(Cc5ccccc5)cn4)CC3)n2)cc1` [Compound 131] were, in that order, 1.01 to 10 nM and 10 to 100 nM.
With `OC[C@H](O)COc1cccc(Nc2ncnc(N3CCN(c4ncc(Cc5ccccc5)cn4)CC3)n2)c1` [Compound 132], the IC50 at D816V Kit is less than 1 nM; in test [1], 10 to 100 nM.
The matching figures for `c1ccc(Cc2cnc(N3CCN(c4ncnc(Nc5cnn(C[C@H]6COCCO6)c5)n4)CC3)nc2)cc1` [Compound 133]: less than 1 nM and 10 to 100 nM.
Take `c1ccc(Cc2cnc(N3CCN(c4ncnc(Nc5cnn(C[C@@H]6COCCO6)c5)n4)CC3)nc2)cc1` [Compound 134]: the IC50 at D816V Kit was less than 1 nM; in test [1], 10 to 100 nM.
The matching figures for `c1ccc(Nc2cnc(N3CCN(c4ncnc(Nc5cnn(C[C@@H]6CNCCO6)c5)n4)CC3)nc2)cc1` [Compound 135]: 1.01 to 10 nM and 10 to 100 nM.
On to `Fc1cccc(F)c1Cc1cnc(N2CCN(c3ncnc(Nc4ccc5c(c4)CNCC5)n3)CC2)nc1` [Compound 136], for which the values for the IC50 (on D816V Kit; in test [1]) were 1.01 to 10 nM and 100 to 1000 nM, respectively.
With `Fc1cccc(Cc2cnc(N3CCN(c4ncnc(Nc5ccc6c(c5)CNCC6)n4)CC3)nc2)c1F` [Compound 137], the IC50 at D816V Kit is 1.01 to 10 nM; in test [1], 10 to 100 nM.
The matching figures for `Fc1ccc(Cc2cnc(N3CCN(c4ncnc(Nc5ccc6c(c5)CNCC6)n4)CC3)nc2)c(F)c1` [Compound 138]: less than 1 nM and 10 to 100 nM.
`Fc1ccc(Cc2cnc(N3CCN(c4ncnc(Nc5ccc6c(c5)CNCC6)n4)CC3)nc2)cc1F` [Compound 139]: the values for the IC50 (on D816V Kit; in test [1]) were 1.01 to 10 nM and 10 to 100 nM, respectively.
The matching figures for `[2H]C([2H])(c1ccccc1)c1cnc(N2CCN(c3ncnc(Nc4cnn(C[C@@H]5CNCCO5)c4)n3)CC2)nc1` [Compound 141]: 1.01 to 10 nM and 10 to 100 nM.
The like results for `c1ccc(Cc2cnc(N3CCN(c4ncnc(Nc5ccc6c(c5)CN(C5CC5)CC6)n4)CC3)nc2)cc1` [Compound 145] were, in that order, 10 to 100 nM and 10 to 100 nM.
The matching figures for `Cc1nn(C2COC2)cc1Nc1ncnc(N2CCN(c3ncc(Sc4ccccc4F)cn3)CC2)n1` [Compound 146]: 1.01 to 10 nM and 10 to 100 nM.
Take `Cc1c(Nc2ncnc(N3CCN(c4ncc(Sc5ccccc5F)cn4)CC3)n2)cnn1C1COC1` [Compound 147]: the IC50 lay in the range of 1.01 to 10 nM at D816V Kit and 100 to 1000 nM in test [1].
As for `CC(C)(O)Cn1cc(Nc2ncnc(N3CCN(c4ncc(Sc5ccccc5F)cn4)CC3)n2)cn1` [Compound 150], the IC50 on D816V Kit was 1.01 to 10 nM; in test [1] it was 10 to 100 nM.
The like results for `Cc1c(Nc2ncnc(N3CCN(c4ncc(Sc5ccc(F)cc5)cn4)CC3)n2)cnn1C[C@H](C)O` [Compound 151] were, in that order, 1.01 to 10 nM and 10 to 100 nM.
For the molecule `Cc1nn(C[C@H](C)O)cc1Nc1ncnc(N2CCN(c3ncc(Sc4ccc(F)cc4)cn3)CC2)n1` [Compound 152], the IC50 was less than 1 nM on D816V Kit and less than 10 nM in test [1].

The values above are taken from patent US9334263B2, “Compositions useful for treating disorders related to kit” (BLUEPRINT MEDICINES CORPORATION, priority 2013, dated 2016).
